These results are taken from patent US7858620B2, “Cyanoisoquinoline” (H. Lundbeck A/S, priority 2007, dated 2010).

The target in one test is T1, PDE10A enzyme (Homo sapiens, UniProt Q9Y233).
T1 construct: made in house; host or cells: E. coli BL21(DE3)
Description: PDE10A inhibition assay, SPA. The note with it: column head 2,1334003; unit inferred, nM. Format: biochemical. The protocol: Active PDE10A enzyme is prepared in a number of ways for use in PDE assays (Loughney, K. et al. Gene 1999, 234, 109-117; Fujishige, K. et al. Eur J Biochem. 1999, 266, 1118-1127 and Soderling, S. et al. Proc. Natl. Acad. Sci. 1999, 96, 7071-7076). PDE10A can be expressed as full-length proteins or as truncated proteins, as long as they express the catalytic domain. PDE10A can be prepared in different cell types, for example insect cells or E. coli. An example of a method to obtain catalytically active PDE10A is as follows: The catalytic domain of human PDE10A (amino acids 440-779 from the sequence with accession number NP 006652) is amplified from total human brain total RNA by standard RT-PCR and is cloned into the BamH1 and Xho1 sites of the pET28a vector (Novagen). Expression in coli is performed according to standard protocols. Briefly, the expression plasmids are transformed into the BL21(DE3) E. coli strain, and 50 mL cultures inoculated with the cells allowed to grow to an OD600 of 0.4-0.6 before protein expression is induced with 0.5 mM IPTG. Following induction, the cells are incubated overnight at room temperature, after which the cells are collected by centrifugation. Cells expressing PDE10A are resuspended in 12 mL (50 mM TRIS-HCl-pH8.0, 1 mM MgCl2 and protease inhibitors). The cells are lysed by sonication, and after all cells are lysed, TritonX100 is added according to Novagen protocols.
PDE10A and Pde3A assays can for example be performed as follows: PDE10A and Pde3A assays are performed in 60 uL samples containing a fixed amount of the relevant PDE enzyme (sufficient to convert 20-25% of the cyclic nucleotide substrate), a buffer (50 mM HEPES7.6; 10 mM MgCl2; 0.02% Tween20), 0.1 mg/ml BSA, 225 pCi of ^3H-labelled cyclic nucleotide substrate, tritium labeled cAMP to a final concentration of 5 nM and varying amounts of inhibitors. Reactions are initiated by addition of the cyclic nucleotide substrate, and reactions are allowed to proceed for one hr at room temperature before being terminated through mixing with 15 uL 8 mg/mL yttrium silicate SPA beads (Amersham). The beads are allowed to settle for one hr in the dark before the plates are counted in a Wallac 1450 Microbeta counter. The measured signal can be converted to activity relative to an uninhibited control (100%) and IC50 values can be calculated using the Xlfit extension to EXCEL.

In the next test the test system is catalepsy in rats. The following applies: cited from earlier work.
Test [1] deals with PCP induced hyperactivity in rats. The following applies: cited from earlier work.
Test [2] deals with amphetamine induced hyperactivity. The following applies: rat, in vivo; cited from earlier work.

Molecules are shown by their SMILES.

T1 sequence (Q9Y233 716-1055): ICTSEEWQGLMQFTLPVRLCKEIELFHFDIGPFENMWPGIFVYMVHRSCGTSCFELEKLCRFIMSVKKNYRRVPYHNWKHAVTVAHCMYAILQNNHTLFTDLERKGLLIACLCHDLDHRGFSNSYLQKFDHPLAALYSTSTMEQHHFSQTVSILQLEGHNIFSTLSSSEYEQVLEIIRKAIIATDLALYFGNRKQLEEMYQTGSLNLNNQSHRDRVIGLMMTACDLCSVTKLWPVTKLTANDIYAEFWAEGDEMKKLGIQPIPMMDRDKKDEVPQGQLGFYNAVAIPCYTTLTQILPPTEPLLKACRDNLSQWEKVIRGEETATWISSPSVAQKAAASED

`COc1cc(C)c(C2CN(c3ncc(C#N)c4cc(OC)c(OC)cc34)CCN2)c(C)c1` (centres unmarked) [Compound 64, 6,7-Dimethoxy-1-[3-(4-methoxy-2,6-dimethyl-phenyl)-piperazin-1-yl]-isoquinoline-4-carbonitrile] yielded a concentration for half-maximal inhibition (IC50) on PDE10A enzyme of 2100 nM. The same measure, in the same setting: as for `COc1cc2c(C#N)cnc(N3CCNC(c4cc(C)c(OC)c(C)c4)C3)c2cc1OC` (centres unmarked) [Compound 65, 6,7-Dimethoxy-1-[3-(4-methoxy-3,5-dimethyl-phenyl)-piperazin-1-yl]-isoquinoline-4-carbonitrile], the figure is 1700 nM. Still for that read-out and setting: as for `COc1cc2c(C#N)cnc(N3CCNC(c4ccc5c(c4)OCCO5)C3)c2cc1OC` (centres unmarked) [Compound 66, 1-[3-(2,3-Dihydro-benzo[1,4]dioxin-6-yl)-piperazin-1-yl]-6,7-dimethoxy-isoquinoline-4-carbonitrile], the figure is 130 nM.

As to `COc1cc2c(C#N)cnc(N3CCNC(c4ccc(OCC(C)C)cc4)C3)c2cc1OC` (centres unmarked) [Compound 67, 1-[3-(4-Isobutoxy-phenyl)-piperazin-1-yl]-6,7-dimethoxy-isoquinoline-4-carbonitrile], on PDE10A enzyme, inhibition was half-maximal at 1100 nM (IC50). The same measure, in the same setting: as for `COc1cc2c(C#N)cnc(N3CCNC(c4ccc(OC)c(C(F)(F)F)c4)C3)c2cc1OC` (centres unmarked) [Compound 68, 6,7-Dimethoxy-1-[3-(4-methoxy-3-trifluoromethyl-phenyl)-piperazin-1-yl]-isoquinoline-4-carbonitrile], the figure is 440 nM; as for `CCOc1ccc(C2CN(c3ncc(C#N)c4cc(OC)c(OC)cc34)CCN2)c(C)c1` (centres unmarked) [Compound 69, 1-[3-(4-Ethoxy-2-methyl-phenyl)-piperazin-1-yl]-6,7-dimethoxy-isoquinoline-4-carbonitrile], 790 nM; as for `COc1ccc(C2CN(c3ncc(C#N)c4cc(OC)c(OC)cc34)CCN2)cc1NC(C)=O` (centres unmarked) [Compound 70, N-{5-[4-(4-Cyano-6,7-dimethoxy-isoquinolin-1-yl)-piperazin-2-yl]-2-methoxy-phenyl}-acetamide], 66 nM. Consider `COc1ccc(Cc2nccc3cc(OC)c(OC)cc23)cc1OC` [Papaverin], for which the “catalepsy on its own” value with catalepsy in rats (alone) is “did not cause catalepsy on its own”. For the same compound, in the test with catalepsy in rats (with D2 receptor antagonist haloperidol), the “effect on cataleptic effect of haloperidol” value was “potentiated the cataleptic effect”. Also, in test [1], the “hyperactivity induced by PCP” value is reported as “reduced hyperactivity”. The “reduction of amphetamine induced hyperactivity” value in test [2] is “insignificant”.

As usually defined, the IC50 is the point on the concentration scale where inhibition reaches its midpoint. Higher therefore signals weaker potency in that assay.
